# Measurements as given in article PMC10908623, “X-ray structure and characterization of a probiotic Lactobacillus rhamnosus Probio-M9 L-rhamnose isomerase” (Applied Microbiology and Biotechnology, 2024).
# B1: L-rhamnose isomerase from Lactobacillus rhamnosus Probio-M9 (enzyme, UniProt A0A171J5T1 1-426, looked up)
# chain: MVKPEEVDKAYEVAKQRYAEIGVDTDAAMKELEKVPLSVHCWQGDDIHGFLFPNQELTGGIGVSGNYPGIARTPDELAGDMHEALSLIPGKHRVQLHAIYAVTDKKRDLDTLEPEDFDYWIDWAKQEGVGLDFNGTFFSHPMVKDNMTVSSPDPKVRDFWIRHGKISREISNYIGEKLGSQVVNNFWFPDGFKDNPIDKKTPRLRLLKALDEIIKDPLPEKNTIESFEGKLFGTGIESYTTGSHEFYQNYAISRNKLWTIDAGHFHPTEDVSDKFSAFFPFGKGLFMHVSRPVRWDSDHVVIMDDALIRITRSLVRDGYLDRTHIGLDFFDATINRVAAWVVGARATQKSLLQAMLAPIDQLKKDELNADFTTRLIETEELKSFPFGAVWDKFCQDHNTPVGFDWMNNIHQYEKDVQFKRDAKLVH
# notes: L-rhamnose isomerase (putative LrL-RhI) of Lactobacillus rhamnosus Probio-M9, 426 amino acid residues, 48707 Da; also called LrL-RhI; L-RhI; not shown: His-tag, C-terminal, kept
# Key:
# [1] = target: T1, LrL-RhI (L. rhamnosus Probio-M9 L-rhamnose isomerase) (Lacticaseibacillus rhamnosus, UniProt A0A171J5T1); assay: X-ray crystal structure of the complex (soaking), […] Å; type: binding; details: 30% (w/v) D-allose soak; Mn2+; crystals at pH 6.5; catalytic site; also a surface site
# T1 construct: gene rhaA; full length, 426 residues, 48707 Da; synthesized gene in pQE60, C-terminal His-tag kept; E. coli JM109; homotetramer
# T1 sequence (A0A171J5T1 1-426): B1 chain
# [2] = target: T1, LrL-RhI (L. rhamnosus Probio-M9 L-rhamnose isomerase); assay: as above; type: binding; details: 30% (w/v) D-allulose soak; Mn2+; crystals at pH 6.5; catalytic site; also a surface site
# [3] = target: the molecule itself; assay: crystal structure; sitting-drop vapor diffusion at 20 C, 0.1 M MES pH 6.5, 15% PEG550MME; LrL-RhI alone and crystals soaked in 30% (w/v) L-rhamnose, D-allulose or D-allose; space group P212121, four molecules in the asymmetric unit
molecule,measurement,setting,value
OC[C@H]1OC(O)[C@H](O)[C@H](O)[C@@H]1O (stereo partly drawn) [D-allose],"X-ray crystal structure of the complex (soaking), 1.71 Å",[1],The bound D-allose exhibits a pyranose form and appears to be β-D-allopyranose
OC[C@]1(O)OC[C@@H](O)[C@@H](O)[C@H]1O [D-allulose],"X-ray crystal structure of the complex (soaking), 1.73 Å",[2],The bound D-allulose shows a ring-opened structure.
B1,stoichiometry N,[3],4
